Measured values reported in US4638070A, “Heterocyclic amino-alcohol derivatives” (Continental Pharma, priority 1980, dated 1987).

Columns and labels:
[1] = Acute toxicity, oral, LD50 (Litchfield and Wilcoxon); settings: mouse, in vivo, fasted male mice, confidence limits p=95% in brackets
Experimental: (1) The acute toxicity was determined on fasted male mice. The tested substances were orally administered and LD50 values (lethal dose for 50% of animals) were calculated according to the method of Litchfield and Wilcoxon (J. Pharmacol. exp. Ther. 96, 94-113, 1949). These LD50 values are given in mg/kg and also, when possible, with their confidence limits for p=95%.

[2] = system: femoral artery; test: Vasodilator activity, femoral artery (technique of perfused paw); type: in vivo; set-up: key: O: no action; +: slight activity; ++: effect equal to half the effect of papaverine; +++: effect equal to that of papaverine; ++++: effect higher than that of papaverine; settings: intra-arterial, 30 mg/kg, anaesthetized dog, vs papaverine at same dose
Experimental: (3) The vasodilator activity was measured at the level of femoral artery on anaesthetized dog (technique of perfused paw). The tested substances were given intra-arterially at the rate of 30 mg/kg. Results are expressed with respect to papaverine tested at the same dose.
++: effect equal to half the effect of papaverine.
+++: effect equal to that of papaverine.
++++: effect higher than that of papaverine.

[3] = system: guinea-pig ileum (histamine contractions); test: Antispasmodic activity in vitro, contractions caused by histamine; settings: added 15 minutes before spasm-producing agent
Experimental: (§1) (4) The antispasmodic activity was measured in vitro, on guinea-pig ileum, the contractions of which were caused by histammne (Hist.), acetylcholine (Achol) or barium chloride (BaCl2). The tested products were added to perfusion bath 15 minutes before the spasm-producing agents.
(§2) The dose is given in micograms (μg) per ml of bath causing complete spasm inhibition.

[4] = system: guinea-pig ileum (acetylcholine contractions); test: Antispasmodic activity in vitro, contractions caused by acetylcholine; settings: added 15 minutes before spasm-producing agent
Experimental: as §1, §2

Row | SMILES | LD50 [1] [mg/kg] | VASODILATOR ACTIVITY [2] | ANTISPASMODIC ACTIVITY HIST. (dose causing complete spasm inhibition) [3] [μg per ml] | ANTISPASMODIC ACTIVITY ACHOL (dose causing complete spasm inhibition) [4] [μg per ml]
1 | CCCCCCCCNC(CC)C(O)c1ccc2c(c1)CCCS2 (centres unmarked) [No 128] | > 4000 | – | – | –
2 | CCCCCCCCNC(C)C(O)c1ccc2c(c1)CCCC2 (centres unmarked) [No 170] | ~2300 | +++ | 1.7 | 0.8
3 | CC(C)NC(C)C(O)c1ccc2c(c1)CCS2 (centres unmarked) [No 33] | 355 | +++ | 16.7 | 16.7
4 | CCCCSCCCNC(C)C(O)c1ccc2c(c1)CCS2 (centres unmarked) [No 125] | 3400 | ++ | 1.7 | –
5 | CC(NC12CC3CC(CC(C3)C1)C2)C(O)c1ccc2c(c1)CCCS2 (centres unmarked) [No 52] | – | +++ | 1.7 | 1.7
6 | COc1ccc(OCCNC(C)C(O)c2ccc3c(c2)CCCS3)cc1 (centres unmarked) [No 53] | > 4000 | +++ | 3.3 | 1.7
7 | CC(NCCCCc1ccccc1)C(OC(=O)C(C)(C)C)c1ccc2c(c1)CCS2 (centres unmarked) [No 99] | – | – | 8.3 | 1.7
8 | CC(CCCc1ccccc1)NC(C)C(O)c1ccc2c(c1)CC(C)O2 (centres unmarked) [No 82] | – | ++ | 0.3 | 1.7
9 | CCCCSCCCNC(C)C(O)c1ccc2c(c1)SCCO2 (centres unmarked) [No 124] | – | ++ | 1.7 | –
10 | CC(C(O)c1ccc2c(c1)CCCS2)N1CCC(c2ccccc2)CC1 (centres unmarked) [No 91] | – | +++ | 0.8 | 1.7
11 | Cc1ccc(OCCNC(C)C(O)c2ccc3c(c2)CC(C)S3)cc1 (centres unmarked) [No 79] | – | – | 1.7 | 0.8
12 | CC(NCCOc1ccc(NS(C)(=O)=O)cc1)C(O)c1ccc2c(c1)CCS2 (centres unmarked) [No 103] | – | – | 3.3 | 16.7
13 | CC(NCCCCc1ccccc1)C(O)c1ccc2c(c1)CCS2 (centres unmarked) [No 7, 1-(2,3-dihydro-5-benzo[b]thienyl)-2-(4-phenylbutylamino)-1-propanol] | 860 | – | – | –
14 | CC1Cc2cc(C(O)C(C)NCCCN3CCCC3)ccc2O1 (centres unmarked) [No 62] | 885 | 0 | > 16.7 | > 16.7
15 | CC(=O)Nc1ccc(OCCNC(C)C(O)c2ccc3c(c2)CCS3)cc1 (centres unmarked) [No 86] | 1420 | +++ | 1.7 | 16.7
16 | CCCCOCCOCCCNC(C)C(O)c1ccc2c(c1)CCCS2 (centres unmarked) [No 72] | 880 | ++ | 1.7 | 1.7
17 | CC(NCCOc1ccc(C(C)(C)C)cc1)C(O)c1ccc2c(c1)CCCS2 (centres unmarked) [No 107] | > 4000 | +++ | 0.8 | 0.8
18 | CC(NCCCN1CCCC1)C(O)c1ccc2c(c1)CCCS2 (centres unmarked) [No 59] | 1120 | +++ | 3.3 | 3.3
19 | CC(NCCCCSc1ccccc1)C(O)c1ccc2c(c1)CCS2 (centres unmarked) [No 31] | > 4000 | – | 0.17 | 1.7
20 | CCCCCCCCNC(C)C(O)c1ccc2c(c1)SCCO2 (centres unmarked) [No 121] | – | +++ | 0.8 | –
21 | CCCCCCCCNC(C)C(O)c1ccc2c(c1)CC(C)S2 (centres unmarked) [No 18] | 3350 | – | – | –

Row | SMILES | LD50 [1] [mg/kg] | VASODILATOR ACTIVITY [2] | ANTISPASMODIC ACTIVITY HIST. (dose causing complete spasm inhibition) [3] [μg per ml] | ANTISPASMODIC ACTIVITY ACHOL (dose causing complete spasm inhibition) [4] [μg per ml]
22 | CC(NCCCN1CCNC1=O)C(O)c1ccc2c(c1)CCCS2 (centres unmarked) [No 56] | – | ++ | > 16.7 | > 16.7
23 | CC(NC1CCCCC1)C(O)c1ccc2c(c1)CCCS2 (centres unmarked) [No 41] | – | – | 8.3 | 8.3
24 | CCCCCCCCNC(C)C(OC(=O)CCCCCCC)c1ccc2c(c1)CCCS2 (centres unmarked) [No 136] | > 4000 | – | – | –
25 | CC(NC1CC1)C(O)c1ccc2c(c1)CCCS2 (centres unmarked) [No 51] | – | ++ | 8.3 | 16.7
26 | CC(NCCOc1ccc2ccccc2c1)C(O)c1ccc2c(c1)CCCS2 (centres unmarked) [No 88] | > 4000 | +++ | 1.7 | 1.7
27 | CC(=O)Nc1ccc(OCCNC(C)C(O)c2ccc3c(c2)CCCS3)cc1 (centres unmarked) [No 87] | – | +++ | 8.3 | 16.7
28 | CC1CSc2ccc(C(O)C(C)NCCCc3ccccc3)cc2C1 (centres unmarked) [No 48] | > 4000 | – | 0.8 | 1.7
29 | COC(=O)CCCCCCCCCCNC(C)C(O)c1ccc2c(c1)CCCS2 (centres unmarked) [No 73] | > 4000 | +++ | 3.3 | 1.7
30 | CCCCCCCCNC(CC)C(O)c1ccc2c(c1)CCS2 (centres unmarked) [No 119] | 1800 | ++++ | 0.3 | –
31 | CCCCCCCCNC(C)C(O)c1ccc2c(c1)CC(C)CS2 (centres unmarked) [No 43] | 3300 | +++ | 0.8 | 1.7
32 | CC(NCCCN1CCCC1=O)C(O)c1ccc2c(c1)CCCS2 (centres unmarked) [No 77] | 235 | 0 | 0.8 | 1.7
33 | CC(NCCOc1ccc(C(C)(C)C)cc1)C(O)c1ccc2c(c1)CCC2 (centres unmarked) [No 176] | > 4000 | +++ | 0.17 | 0.8
34 | CC(CCCc1ccccc1)NC(C)C(O)c1ccc2c(c1)CCC2 (centres unmarked) [No 173] | 2600 | ++ | 0.8 | 0.8
35 | CC(CCCc1ccccc1)NC(C)C(O)c1ccc2c(c1)CCS2 (centres unmarked) [No 63] | 1850 | ++ | 0.8 | 0.8
36 | COC(=O)c1ccc(OCCNC(C)C(O)c2ccc3c(c2)CCCS3)cc1 (centres unmarked) [No 114] | > 2000 | +++ | 0.8 | 3.3
37 | COc1ccc(OCCNC(C)C(O)c2ccc3c(c2)CC(C)S3)cc1 (centres unmarked) [No 66] | – | ++ | 1.7 | 3.3
38 | CC(NCCOc1ccc2c(c1)CCC2)C(O)c1ccc2c(c1)CCCS2 (centres unmarked) [No 83] | > 4000 | +++ | 1.7 | 0.8
39 | CCCCOCCCNC(C)C(O)c1ccc2c(c1)CCCS2 (centres unmarked) [No 50] | 900 | +++ | 1.7 | 1.7
40 | CC(NCCCCc1ccccc1)C(O)c1ccc2c(c1)CCCCS2 (centres unmarked) [No 12, 1-(2,3,4,5-tetrahydrobenzo[b]thiepin-7-yl)-2-(4-phenylbutylamino)-1-propanol] | 5200 | – | – | –
41 | CC(C(O)c1ccc2c(c1)CCC2)N1CCC(c2ccccc2)CC1 (centres unmarked) [No 174] | 2150 | +++ | 0.8 | –
